In one assay the target is human S1P1 (Homo sapiens (Human), UniProt P21453). The assay can be described thus: S1P1 binding assay (33P-S1P radioligand competition, CHO cell membranes). The following applies: phosphate examples; read-out: S1P1 Binding. In outline: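 Radioligand is 33P-S1P, competing for membranes from human S1P1-expressing CHO cells. Membranes resuspended in 50 mM HEPES pH 7.5, 100 mM NaCl, 1 mM MgCl2, 2 mM EDTA.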
Background: Displacement assays read how much labelled ligand stays bound in the presence of the test substance.

Assay [1] has as its target S1P1 (membranes prepared from S1P1/CHO cells) (Homo sapiens (Human), UniProt P21453). The assay can be described thus: Receptor [35S] GTPγS binding assay (S1P1 GTPγS). The class given is biochemical. The conditions noted are these: phosphate examples; read-out: S1P1 GTPγS. In outline:
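Membranes from S1P1-expressing CHO cells (3 μg protein/well) incubated with compound (11-point, 3-fold dilution) and 0.2 nM final [35S]GTPγS, 45 min at room temperature. Assay buffer: 20 mM HEPES pH 7.5, 10 mM MgCl2, 150 mM NaCl, 10 μM GDP, 0.1% fatty-acid-free BSA, 10 μg/ml saponin. Filter-bound radioactivity counted by scintillation; EC50 derived.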
Background: Binding of GTPγS marks nucleotide exchange on a G protein.

For assay [2], the target named is S1P3 (membranes prepared from EDG3-Gal5-bla HEK293T cells) (Homo sapiens (Human), UniProt Q99500). The assay can be described thus: Receptor [35S] GTPγS binding assay (S1P3 GTPγS). Format: biochemical. The conditions noted are these: phosphate examples; read-out: S1P3 GTPγS. The gist of the method: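 Membranes (3 μg protein/well) from S1P1/CHO cells or EDG3-Gal5-bla HEK293T cells (S1P3) were incubated 45 min at room temperature with 0.2 nM final [35S]GTPγS in HEPES pH 7.5 buffer with 10 μM GDP, MgCl2 and saponin. Bound label counted after filtration; EC50 from 11-point, 3-fold dilutions.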

The next assay addresses hS1P1/CHO cells (Homo sapiens (Human), UniProt P21453). The assay can be described thus: hS1P1 ERK phosphorylation (S1P1 pERK). The conditions noted are these: phosphate examples. The class given is cell-based. The gist of the method:
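CHO cells expressing human S1P1, serum-starved 2 h, exposed to compound in HBSS/20 mM HEPES for 7 min at 37° C. Lysates assayed for phospho-ERK by SureFire kit; response given as % activation relative to 10 μM S1P.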

Consider 31 compounds from patent US9522888B2, “Substituted bicyclic compounds” (BRISTOL-MYERS SQUIBB COMPANY, priority 2014, dated 2016).

Chain of S1P1 (membranes prepared from S1P1/CHO cells) (P21453 whole entry): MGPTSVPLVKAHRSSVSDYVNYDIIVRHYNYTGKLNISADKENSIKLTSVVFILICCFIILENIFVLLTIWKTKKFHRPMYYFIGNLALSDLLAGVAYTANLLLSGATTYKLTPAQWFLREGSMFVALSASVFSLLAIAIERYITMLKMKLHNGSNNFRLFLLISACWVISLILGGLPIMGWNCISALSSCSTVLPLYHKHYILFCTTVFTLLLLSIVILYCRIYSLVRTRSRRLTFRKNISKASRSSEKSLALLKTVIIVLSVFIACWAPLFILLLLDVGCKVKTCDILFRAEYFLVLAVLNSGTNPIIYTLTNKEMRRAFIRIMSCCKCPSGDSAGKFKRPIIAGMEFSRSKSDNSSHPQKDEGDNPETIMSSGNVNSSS
Chain of hS1P1/CHO cells (P21453 whole entry): as above
Chain of human S1P1 (P21453 whole entry): as above
Chain of S1P3 (membranes prepared from EDG3-Gal5-bla HEK293T cells) (Q99500 whole entry): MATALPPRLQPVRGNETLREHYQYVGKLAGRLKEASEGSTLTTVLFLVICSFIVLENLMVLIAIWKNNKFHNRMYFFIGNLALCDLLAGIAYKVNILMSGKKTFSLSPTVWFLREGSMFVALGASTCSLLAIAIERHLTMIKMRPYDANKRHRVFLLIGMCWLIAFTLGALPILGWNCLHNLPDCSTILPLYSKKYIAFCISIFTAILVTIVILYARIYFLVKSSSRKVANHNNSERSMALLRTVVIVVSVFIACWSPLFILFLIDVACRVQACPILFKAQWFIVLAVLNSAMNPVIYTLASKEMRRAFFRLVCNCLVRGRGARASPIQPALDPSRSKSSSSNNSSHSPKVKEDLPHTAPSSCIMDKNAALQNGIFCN

As to `CCCCCO[C@@H]1CCc2cc([C@H]3CC[C@](N)(COP(=O)(O)O)C3)ccc2C1` [compound 430], at human S1P1, the IC50 lay in the range of 10 to 100 nM. The EC50 in assay [1] is 10 to 100 nM; in assay [2], greater than 625 nM; on hS1P1/CHO cells it was less than 10 nM.
For `CCCCCCCCCCOC[C@H]1CCc2cc([C@H]3CC[C@](N)(COP(=O)(O)O)C3)ccc2C1` [compound 450], on human S1P1, the IC50 is less than 10 nM. In addition, the EC50 was less than 10 nM in assay [1], greater than 625 nM in assay [2] and 10 to 100 nM on hS1P1/CHO cells.
Take `CCCCC(C)(C)C(=O)OC1CCc2cc([C@H]3CC[C@@](N)(COP(=O)(O)O)C3)ccc2C1` (stereo partly shown) [compound 624]: on human S1P1, the IC50 lay in the range of 1000 to 10000 nM. The EC50 in assay [1] is less than 10 nM; in assay [2], greater than 625 nM; at hS1P1/CHO cells, 100 to 1000 nM.
For `NC1(COP(=O)(O)O)CC[C@H](c2ccc3c(c2)CC[C@@H](c2ccccc2)C3)C1` (single isomer, unassigned) [compound 570], in that order: 10 to 100 nM, 10 to 100 nM, greater than 625 nM and less than 10 nM.
Regarding `N[C@]1(COP(=O)(O)O)CC[C@H](c2ccc3c(c2)CC[C@H](C[S+]([O-])c2ccccc2)C3)C1` (stereo partly drawn) [Example 667, ((1R,3S)-1-amino-3-((6S)-6-((phenylsulfinyl)methyl)-5,6,7,8-tetrahydronaphthalen-2-yl)cyclopentyl)methyl dihydrogen phosphate], the IC50 on human S1P1 fell in the range of 100 to 1000 nM. Further, the EC50 in assay [1] is 100 to 1000 nM; in assay [2] it was greater than 625 nM; at hS1P1/CHO cells, 100 to 1000 nM.
On to `CC(C)CSCC[C@H]1CCc2cc([C@H]3CC[C@](N)(COP(=O)(O)O)C3)ccc2C1` [compound 539], for which the IC50 at human S1P1 was less than 10 nM. Besides, the EC50 in assay [1] was less than 10 nM; in assay [2] it was greater than 625 nM; at hS1P1/CHO cells, less than 10 nM.
As to `CCc1ccc(COC[C@@H]2CCc3cc([C@H]4CC[C@](N)(COP(=O)(O)O)C4)ccc3C2)s1` [compound 489], the IC50 on human S1P1 was less than 10 nM. Also, the EC50 in assay [1] was 10 to 100 nM; in assay [2] it was greater than 625 nM; at hS1P1/CHO cells, less than 10 nM.
For the compound `COc1cccc(C[C@H]2CCc3cc([C@H]4CC[C@](N)(COP(=O)(O)O)C4)ccc3C2)c1` [compound 567], the IC50 at human S1P1 was less than 10 nM. Further, the results for the EC50 (in assay [1]; in assay [2]; at hS1P1/CHO cells) were less than 10 nM, greater than 625 nM and 10 to 100 nM, respectively.
For the compound `C/C=C/CCCC[C@H]1CCc2cc([C@H]3CC[C@](N)(COP(=O)(O)O)C3)ccc2C1` [compound 659], the IC50 on human S1P1 was less than 10 nM. For the same compound, the EC50 in assay [1] is less than 10 nM; in assay [2] it was greater than 625 nM; on hS1P1/CHO cells it was 10 to 100 nM.
As for `CCCCSC[C@@H]1CCc2cc([C@@H]3CC[C@](N)(COP(=O)(O)O)C3)ccc2C1` [compound 506], the IC50 at human S1P1 is less than 10 nM. The results for the EC50 (in assay [1]; in assay [2]; on hS1P1/CHO cells) were less than 10 nM, greater than 625 nM and less than 10 nM, respectively.
As to `N[C@]1(COP(=O)(O)O)CC[C@H](c2ccc3c(c2)CC[C@@H](CCc2ccccc2)C3)C1` [compound 573], the IC50 on human S1P1 lay within 10 to 100 nM. The EC50 in assay [1] is 10 to 100 nM; in assay [2], greater than 625 nM; at hS1P1/CHO cells it was 10 to 100 nM.
For `N[C@]1(COP(=O)(O)O)CC[C@H](c2ccc3c(c2)CC[C@H](COCc2ccccc2)C3)C1` [compound 445], the IC50 on human S1P1 is 10 to 100 nM. The EC50 in assay [1] is 10 to 100 nM; in assay [2] it was greater than 625 nM; on hS1P1/CHO cells, 10 to 100 nM.
Regarding `COc1ccc(C[C@@H]2CCc3cc([C@H]4CC[C@](N)(COP(=O)(O)O)C4)ccc3C2)c(C)c1` [compound 546], the IC50 at human S1P1 was 100 to 1000 nM. Moreover, the EC50 was 100 to 1000 nM in assay [1], greater than 625 nM in assay [2] and 10 to 100 nM on hS1P1/CHO cells.
For `Cc1ccc(OC[C@H]2CCc3cc([C@H]4CC[C@](N)(COP(=O)(O)O)C4)ccc3C2)cc1` [compound 466], the IC50 at human S1P1 lay within 10 to 100 nM. Also, the EC50 in assay [1] was 10 to 100 nM; in assay [2], greater than 625 nM; on hS1P1/CHO cells, 10 to 100 nM.
In the case of `COc1ccc(OC[C@@H]2CCc3cc([C@H]4CC[C@](N)(COP(=O)(O)O)C4)ccc3C2)cc1` [compound 476], on human S1P1, the IC50 lay in the range of 10 to 100 nM. The figures for the EC50 (in assay [1]; in assay [2]; on hS1P1/CHO cells) were 10 to 100 nM, greater than 625 nM and 10 to 100 nM, respectively.
Consider `CCOc1cccc(CO[C@@H]2CCc3cc([C@H]4CC[C@](N)(COP(=O)(O)O)C4)ccc3C2)c1` [compound 444], for which the IC50 on human S1P1 was less than 10 nM. In addition, the EC50 in assay [1] is less than 10 nM; in assay [2], greater than 625 nM; at hS1P1/CHO cells, less than 10 nM.
Regarding `C=CCCCOC[C@@H]1CCc2cc([C@H]3CC[C@](N)(COP(=O)(O)O)C3)ccc2C1` [compound 454], the IC50 at human S1P1 is less than 10 nM. For the same compound, the EC50 in assay [1] is 10 to 100 nM; in assay [2] it was greater than 625 nM; at hS1P1/CHO cells, less than 10 nM.
For `CN(C)C(=O)Cc1ccc(C[C@@H]2CCc3cc([C@H]4CC[C@](N)(COP(=O)(O)O)C4)ccc3C2)cc1` [compound 562], the IC50 at human S1P1 was in the range of 100 to 1000 nM. For the same compound, the EC50 in assay [1] is 100 to 1000 nM; in assay [2], greater than 625 nM; at hS1P1/CHO cells it was 10 to 100 nM.
Regarding `COc1ccc(C[C@H]2CCc3cc([C@H]4CC[C@](N)(COP(=O)(O)O)C4)ccc3C2)cc1` [compound 568], the IC50 at human S1P1 lay in the range of 10 to 100 nM. For the same compound, the EC50 in assay [1] was less than 10 nM; in assay [2], greater than 625 nM; on hS1P1/CHO cells, less than 10 nM.
With `N[C@]1(COP(=O)(O)O)CC[C@H](c2ccc3c(c2)CC[C@@H](CSc2cccnc2)C3)C1` [compound 516], at human S1P1, the IC50 was in the range of 10 to 100 nM. The EC50 is 10 to 100 nM in assay [1], greater than 625 nM in assay [2] and less than 10 nM at hS1P1/CHO cells.
Take `CCCCC[C@H]1CCc2cc([C@@H]3CC[C@@](N)(COP(=O)(O)O)C3)ccc2C1` [compound 578]: the IC50 on human S1P1 is less than 10 nM. Moreover, the EC50 in assay [1] was 10 to 100 nM; in assay [2] it was greater than 625 nM; on hS1P1/CHO cells, less than 10 nM.
Turning to `N[C@]1(COP(=O)(O)O)CC[C@H](c2ccc3c(c2)CC[C@@H](CSCCc2ccccc2)C3)C1` [compound 522], the IC50 at human S1P1 was less than 10 nM. Also, the EC50 in assay [1] is 10 to 100 nM; in assay [2], greater than 625 nM; at hS1P1/CHO cells it was 10 to 100 nM.
In the case of `C/C=C\CCCC[C@@H]1CCc2cc([C@H]3CC[C@](N)(COP(=O)(O)O)C3)ccc2C1` [compound 661], the IC50 on human S1P1 was less than 10 nM. Moreover, the EC50 was less than 10 nM in assay [1], greater than 625 nM in assay [2] and less than 10 nM at hS1P1/CHO cells.
Consider `CCCCCOC[C@@H]1COc2cc([C@H]3CC[C@](N)(COP(=O)(O)O)C3)ccc2O1` [Example 412, ((1R,3S)-1-amino-3-((R)-2-((pentyloxy)methyl)-2,3-dihydrobenzo[b][1,4]dioxin-6-yl)cyclopentyl)methyl dihydrogen phosphate], for which, at human S1P1, the IC50 was less than 10 nM. For the same compound, the EC50 is less than 10 nM in assay [1], greater than 625 nM in assay [2] and less than 10 nM at hS1P1/CHO cells.
Turning to `CCCC/C=C\CO[C@H]1CCc2cc([C@H]3CC[C@](N)(COP(=O)(O)O)C3)ccc2C1` [compound 440], at human S1P1, the IC50 was less than 10 nM. Besides, the EC50 is less than 10 nM in assay [1], greater than 625 nM in assay [2] and less than 10 nM at hS1P1/CHO cells.
In the case of `C/C=C\CCC[C@H]1CCc2cc([C@H]3CC[C@](N)(COP(=O)(O)O)C3)ccc2C1` [compound 657], the IC50 on human S1P1 lay in the range of 10 to 100 nM. Moreover, the EC50 is less than 10 nM in assay [1], greater than 625 nM in assay [2] and 10 to 100 nM at hS1P1/CHO cells.
Regarding `COc1cncc(OC[C@@H]2CCc3cc([C@H]4CC[C@](N)(COP(=O)(O)O)C4)ccc3C2)c1` [compound 477], the IC50 on human S1P1 was less than 10 nM. The values for the EC50 (in assay [1]; in assay [2]; on hS1P1/CHO cells) were 10 to 100 nM, greater than 625 nM and less than 10 nM, respectively.
For the compound `N[C@]1(COP(=O)(O)O)CC[C@H](c2ccc3c(c2)CC[C@H](CSCCc2cnccn2)C3)C1` [compound 526], on human S1P1, the IC50 fell in the range of 10 to 100 nM. Besides, the EC50 in assay [1] is 10 to 100 nM; in assay [2], greater than 625 nM; on hS1P1/CHO cells, less than 10 nM.
Regarding `CCOc1ccc(C[C@@H]2CCc3cc([C@H]4CC[C@](N)(COP(=O)(O)O)C4)ccc3C2)cc1` [compound 549], the IC50 at human S1P1 was 100 to 1000 nM. Also, the EC50 in assay [1] was 100 to 1000 nM; in assay [2] it was greater than 625 nM; at hS1P1/CHO cells, less than 10 nM.
`COc1cccc(SC[C@@H]2CCc3cc([C@H]4CC[C@](N)(COP(=O)(O)O)C4)ccc3C2)c1` [compound 528]: the IC50 on human S1P1 is 10 to 100 nM. For the same compound, the EC50 in assay [1] was 100 to 1000 nM; in assay [2], greater than 625 nM; on hS1P1/CHO cells, 10 to 100 nM.
`N[C@]1(COP(=O)(O)O)CC[C@H](c2ccc3c(c2)CC[C@@H](CSCCc2ccncc2)C3)C1` [compound 525]: at human S1P1, the IC50 is less than 10 nM. The EC50 in assay [1] was 10 to 100 nM; in assay [2], greater than 625 nM; at hS1P1/CHO cells, less than 10 nM.
